Laboratory results from patent US20100029577A1, “Chiral separation, characterization and biological action of optically active isomers of digoxin” (priority 2008, published 2010).

Experiments:
[1] = system: gram-negative and gram-positive bacteria; conditions: against both gram-negative and gram-positive bacteria; cited from earlier work
[2] = system: AV node conduction and cardiac contractibility; assay: Effect on PR interval (AV node conduction) and cardiac contractibility in anesthetized guinea pig, continuous IV infusion; format: in vivo; conditions: infused at 6 μg/kg/min continuously IV
Experimental: The guinea pig or rat is anesthetized with pentobarbital at 40 mg/kg IP, then-connected to an EKG recorder. The animal is then placed on a small animal respirator. Aseptic surgical instruments are soaked in ethanol and then flamed. An incision is made in the chest wall to open the chest. A Walton Brody stain gauge arch is sutured to the right ventricle to measure contractile changes. The refractoriness of the AV node is determined by measuring the PR-interval on the surface EKG. Graphs can be created from the data displaying the dose related change in the PR interval to the dose related contractile augmentation. Digoxin or chiral isolates are infused through the jugular vein at concentrations (from 0.1 μM and then to 10 μM) at a constant rate by infusion pump, to determine the differential effects on the AV node and cardiac contractibility. The infusions are continued to a 50% level augmentation in contractibility or the development of ventricular tachycardia. To maintain a consistent level of anesthesia, pentobarbital 20 mg/kg IP or 10 mg/kg IV for more immediate action at 30-minute intervals may be administered.
The effect of digoxin and one of the two chiral isomers was evaluated in the guinea pig. Guinea pigs were anesthetized with pentobarbital. […] An EKG was continuously recorded. Conduction through the AV node was determined by measuring the PR interval on the surface EKG. […]

serum protein [3] = assay: Free fraction of digitoxin by centrifugation; format: in vitro ADME
Experimental: Free fraction of digitoxin increased with centrifugation time from 18% at 10 minutes to 37% at 80 minutes (500 g) without reaching plateau levels.

serum protein [4] = assay: Digitoxin serum protein binding by equilibrium dialysis; format: in vitro ADME, patients
Experimental: Digitoxin protein binding was dependent on albumin content. […] Chamber equilibrium dialysis gave similar results. […] (mean, 96.7%) and at 37° C. (mean, 96.9%). Digoxin isolates will be used under similar conditions.

[5] = system: digitoxin serum protein binding; assay: In vitro drug studies: ability to induce changes in digitoxin serum protein binding; conditions: procainamide 5 mg/ml, phenytoin 50 mg/ml, heparin 5 IU/ml, rifampicillin 4.5 μg/ml
Experimental: Digoxin isolates will be used under similar conditions.
The ability to induce changes in digitoxin serum protein binding was tested for the following drugs: procainamide (5 mg/ml), phenytoin (50 mg/ml), heparin (5 IU/ml), and rifampicillin (4.5 μg/ml). […] Identical procedures will be used for digoxin isolates.

For `CC1COc2c(N3CCN(C)CC3)c(F)cc3c(=O)c(C(=O)O)cn1c23` (single isomer, unassigned; (-)) [(−)-Ofloxacin], the “times more active as the racemate” value [1] is listed as 8-128 times.
With `CC1O[C@@H](O[C@H]2C(O)C[C@H](O[C@H]3C(O)C[C@H](OC4CC[C@@]5(C)[C@H](CC[C@@H]6[C@@H]5C[C@@H](O)[C@]5(C)[C@@H](C7=CC(=O)OC7)CC[C@]65O)C4)OC3C)OC2C)CC(O)[C@@H]1O` (stereo partly shown) [Digoxin] the “change in PR interval on the surface EKG” value [2] was “progressive increase” and the “change in cardiac contractibility as measured by the strain-gauge arch” value [2] was “increase”.
In the case of `C[C@H]1O[C@@H](O[C@H]2[C@@H](O)C[C@H](O[C@H]3[C@@H](O)C[C@H](O[C@H]4CC[C@@]5(C)[C@H](CC[C@@H]6[C@@H]5CC[C@]5(C)[C@@H](C7=CC(=O)OC7)CC[C@]65O)C4)O[C@@H]3C)O[C@@H]2C)C[C@H](O)[C@@H]1O` [digitoxin], the free fraction (serum protein [3]; centrifugation 10 minutes, 500 g) is reported as 18%, the free fraction (serum protein [3]; centrifugation 60 minutes, 135 g) is reported as 5.9% and the free fraction (serum protein [3]; centrifugation 60 minutes, 560 g) is reported as 15.7%. For the same compound, the free fraction (serum protein [3]; centrifugation 80 minutes, 500 g) was 37%, the “digitoxin binding (mean)” value (serum protein [4]; sera from 9 patients dialyzed at 20° C.) was 96.7% and the “digitoxin binding (mean)” value (serum protein [4]; sera from 9 patients dialyzed at 37° C.) was 96.9%.
With `O=C1NC(=O)C(c2ccccc2)(c2ccccc2)N1` [phenytoin] the “changes in the serum protein binding of digitoxin” value (shortened to “changes”) [5] was “None of these induced significant changes”.
In the case of `CCN(CC)CCNC(=O)c1ccc(N)cc1` [procainamide], the “changes” value [5] is reported as “None of these induced significant changes”.
For heparin, the “changes” value [5] was “None of these induced significant changes”.
In the case of rifampicillin, the “changes” value [5] is reported as “None of these induced significant changes”.
